Reference: US20230103631A1, “PEPTIDES AS SELECTIVE GIP RECEPTOR AGONISTS” (Sanofi, priority 2020, published 2023)
*1 amine or outer side, *2 acyl side, *3 side chain or, on linkers, in order; H or OH if unused. Where a SMILES comes first, the peptide text is derived from it. Side-chain parts run from the residue outwards. [ ]: non-standard residue; d: D form. The star is where a group is joined. C20 diacid = O=C(O)CCCCCCCCCCCCCCCCCCC(=O)*; C18 diacid = O=C(O)CCCCCCCCCCCCCCCCC(=O)*; γGlu = O=C(O)[C@H](CCC(=O)[*:2])N[*:1]; AEEA = NCCOCCOCC(=O)O; Aib = CC(C)(N)C(=O)O

What was measured:
[1] = target: human GLP-1 receptor (hGLP-1R) (Homo sapiens, UniProt P43220); experiment: cAMP HTRF assay, HEK-293 cell line over-expressing human GLP-1 receptor; assay type: cell-based; conditions: HEK-293, cAMP, 0% HSA
human GLP-1 receptor (hGLP-1R), sequence (P43220 24-463): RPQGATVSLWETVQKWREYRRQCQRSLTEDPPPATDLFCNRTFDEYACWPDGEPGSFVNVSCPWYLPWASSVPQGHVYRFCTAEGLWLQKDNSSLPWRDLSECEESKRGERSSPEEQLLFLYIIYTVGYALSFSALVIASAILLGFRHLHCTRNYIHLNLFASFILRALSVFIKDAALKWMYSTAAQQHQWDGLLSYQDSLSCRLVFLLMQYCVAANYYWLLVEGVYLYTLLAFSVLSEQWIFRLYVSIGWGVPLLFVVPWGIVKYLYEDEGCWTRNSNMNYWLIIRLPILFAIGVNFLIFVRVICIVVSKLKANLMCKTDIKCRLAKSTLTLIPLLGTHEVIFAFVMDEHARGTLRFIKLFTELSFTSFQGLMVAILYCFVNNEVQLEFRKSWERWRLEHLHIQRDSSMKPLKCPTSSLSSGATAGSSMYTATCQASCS
Experimental: Each vial contained 1.8 ml cells. The vials were slowly frozen to −80° C. in isopropanol, and then transferred in liquid nitrogen for storage.
Prior to their use, frozen cells were thawed quickly at 37° C. and washed (5 min at 900 rpm) with 20 ml cell buffer (1× HBSS; 20 mM HEPES, plus 0.1% HSA if indicated in Example conditions).
For measurement of cAMP generation, 5 μl cells (final 5000 cells/well) and 5 μl of test compound were added to a 384-well plate, followed by incubation for 30 min at room temperature.
The cAMP generated was determined using a kit from Cisbio Corp. based on HTRF (Homogenous Time Resolved Fluorescence). The cAMP assay was performed according to manufacturer's instructions (Cisbio).

[2] = Chemical stability assessment (relative purity loss by UHPLC-UV); assay type: physicochemical
Experimental: Purity of a peptide batch was determined through UHPLC/MS prior to chemical stability measurement. The target concentration was […] pure compound. Solutions from solid samples were prepared in the following buffer systems with a concentration of ˜300 μM compound based on the previously determined % purity:
Chemical stability buffer system A) 20 mM phosphate buffer pH 7.4,
Chemical stability buffer system B) 8 mM phosphate buffer pH 7.4, 14 mg/ml propylene glycol, 5.5 mg/ml phenol
Chemical stability buffer system C) 100 mM phosphate buffer pH 7.4, 2.7 mg/ml m-cresol
Prepared solutions were filtered through […] pore size and filled into sterilized glass containers under laminar flow conditions.
Glass containers were stored for 28 days at 5 and 40° C. After this time, the samples were centrifuged for 15 min at 2500 RCF. Then 1.5 μl of the undiluted supernatant were analysed with UHPLC-UV.
The chemical stability was rated through the relative loss of purity calculated by the equation:
[(purity after 28 days at 5° C.)−(purity after 28 days at 40° C.)]/(purity after 28 days at 5° C.)]*100%
The purity is calculated as
[(peak area peptide)/(total peak area)]*100%
The analytical methods used were Analytical UHPLC Method B or C.
Peptide samples were prepared in Chemical stability buffer system A or B and stability was assessed as described in Methods.

human GIP receptor = target: T1, human GIP receptor (Homo sapiens, UniProt P48546); experiment: cAMP HTRF assay in human adipocytes endogenously expressing the human GIP receptor; assay type: cell-based; conditions: for Emax: read-out: hGIPR Emax; for EC50: read-out: hGIPR EC50
T1 construct: human adipocytes endogenously expressing the human GIP receptor; host or cells: human preadipocytes (Lonza) differentiated to adipocytes
T1 sequence (P48546 22-466): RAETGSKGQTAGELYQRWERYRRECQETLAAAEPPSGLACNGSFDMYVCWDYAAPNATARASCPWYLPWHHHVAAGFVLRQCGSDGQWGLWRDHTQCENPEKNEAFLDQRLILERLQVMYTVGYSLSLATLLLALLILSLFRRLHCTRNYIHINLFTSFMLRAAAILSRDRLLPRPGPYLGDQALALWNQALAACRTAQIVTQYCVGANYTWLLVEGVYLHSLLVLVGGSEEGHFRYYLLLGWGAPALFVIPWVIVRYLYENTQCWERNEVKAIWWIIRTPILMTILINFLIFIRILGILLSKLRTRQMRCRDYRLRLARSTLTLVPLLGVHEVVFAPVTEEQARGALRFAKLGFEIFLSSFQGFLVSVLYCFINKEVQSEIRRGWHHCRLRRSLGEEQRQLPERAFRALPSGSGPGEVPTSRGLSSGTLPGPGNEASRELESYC
Experimental: For this, one vial of human preadipocytes (˜10^6 cells; Lonza) was thawed in a T-75 cell culture dish.
After 3 days, the cells were washed with PBS and 1.5 ml Trypsin, incubated for 4 min, then resuspended in medium, centrifugated for 10 min @ 300 rcf RT, resuspended again and distributed to four T-75 cell culture dishes.
After 5 days, the cells were washed with PBS and 1.5 ml Trypsin, incubated for 4 min, then resuspended in medium, centrifugated for 10 min @ 300 rcf RT, resuspended again and sawn in T-75 dishes (2.5×10^6 cells per dish) in 15 ml Differentiation medium each.
After 6 days of differentiation, 5000 cells per well were dispensed on a 96-well plate (#CLS3694 from Corning®, Sigma-Aldrich). For measurement of cAMP generation, 25 μL of test compound was added to each well of the 96-well plate, followed by incubation for 30 min at room temperature.
The cAMP generated following test compound stimulation was determined using a kit from Cisbio Corp. based on HTRF (Homogenous Time Resolved Fluorescence). The cAMP assay was performed according to manufacturer's instructions (Cisbio).
The cAMP content of cells was determined using a kit from Cisbio Corp. based on HTRF (Homogenous Time Resolved Fluorescence).

[3] = target: T2, human GIP receptor (hGIPR) (Homo sapiens, UniProt P48546); experiment: Binding assay, displacement of [125I]GIP from HEK-293 membranes expressing GIPR; conditions: [125I]GIP displacement
T2 sequence (P48546 22-466): T1 sequence (P48546 22-466)
Experimental: HEK-293 cells recombinantly over-expressing GIPR or GLP-1R were grown to 50% confluency, washed with warm 1×PBS (Gibco) and detached in HEPES/EDTA-buffer (100 mM HEPES pH 7.5, 5 mM EDTA). Cells were harvested by centrifugation at 4° C. and 3000×g and the pellets were stored at −80° C. until further processing.
After thawing on ice, pellets were resuspended in HEPES/EDTA-buffer and homogenized on ice for 1 min using Ultra-Turray T25. After subsequent sonification the cell debris was removed by centrifugation at 1000×g and 4° C. Supernatants were then ultra-centrifuged at 100000×g and 4° C. under vacuum for 30 min. Pellets were resuspended in HEPES/EDTA/NaCl-buffer (20 mM HEPES, 1 mM EDTA, 150 mM NaCl; add 1 Complete Mini Protease inhibitor cocktail to 10 ml buffer) and protein content was determined via BCA-Protein assay.

physchem = assay type: physicochemical; conditions: for Soluble amount: 24 h, pH 7.4; for solubility at 24 h: pH 7.4, Soluble amount
Experimental: Prior to the solubility measurement of a peptide batch, its purity was determined through UHPLC/MS. […] Therefore, solutions from solid samples were prepared in a buffer system with a concentration of 10 mg/ml compound based on the previously determined % purity: Solubility buffer system A) 100 mM phosphate buffer pH 7.4 […] Solubility buffer system C) 100 mM phosphate buffer pH 7.4, 2.7 mg/ml m-cresol UHPLC-UV was performed after 1 h of gentle agitation and storage at 5° C. over night (24 h) from the supernatant, which was obtained after 15 min of centrifugation at 2500 RCF (relative centrifugal acceleration). […] The different UV extinction coefficients of sample and reference peptide were calculated based on the different amino acid sequences and considered in the concentration calculation. The analytical method used was Analytical UHPLC Method A. Peptide samples were prepared in solubility buffer system A or C and solubility was assessed as described in Methods.

[4] = Chemical stability buffer system A: 20 mM phosphate buffer pH 7.4

| SMILES | EC50 [1] [pM] | Relative purity loss over 28 days at 40° C. [2, 4] [%] | Relative purity loss over 28 days at 40° C. ([2]; Chemical stability buffer system B: 8 mM phosphate buffer pH 7.4, 14 mg/ml propylene glycol, 5.5 mg/ml phenol) [%] | Emax (human GIP receptor) [%] | IC50 [3] [pM] | Soluble amount (physchem) [mg/mL] | solubility at 24 h (physchem) [µg/mL] | EC50 (human GIP receptor) [pM] |
| --- | --- | --- | --- | --- | --- | --- | --- | --- |
| CC[C@H](C)[C@H](NC(=O)[C@H](Cc1ccccc1)NC(=O)[C@H](CCC(=O)O)NC(=O)[C@H](CCC(=O)O)NC(=O)[C@H](CCC(N)=O)NC(=O)[C@H](Cc1c[nH]cn1)NC(=O)[C@@H](NC(=O)[C@H](CCCNC(=N)N)NC(=O)[C@H](CC(=O)O)NC(=O)[C@H](CCCCNC(=O)COCCOCCNC(=O)COCCOCCNC(=O)CC[C@H](NC(=O)CCCCCCCCCCCCCCCCC(=O)O)C(=O)O)NC(=O)C(C)(C)NC(=O)[C@@H](NC(=O)[C@H](CO)NC(=O)[C@H](CC(C)C)NC(=O)[C@H](CC(=O)O)NC(=O)[C@H](CO)NC(=O)[C@@H](NC(=O)[C@H](Cc1ccccc1)NC(=O)[C@@H](NC(=O)CNC(=O)[C@H](CCC(=O)O)NC(=O)C(C)(C)NC(=O)[C@@H](N)Cc1ccc(O)cc1)[C@@H](C)O)[C@@H](C)CC)[C@@H](C)CC)[C@@H](C)CC)C(=O)N[C@@H](CCC(=O)O)C(=O)N[C@@H](Cc1c[nH]c2ccccc12)C(=O)N[C@@H](CC(C)C)C(=O)N[C@@H](CC(C)C)C(=O)N[C@@H](C)C(=O)N[C@@H](CCC(N)=O)C(=O)NCC(=O)N1CCC[C@H]1C(=O)N[C@@H](CO)C(=O)N[C@@H](CO)C(=O)NCC(=O)N[C@@H](C)C(=O)N1CCC[C@H]1C(=O)N1CCC[C@H]1C(=O)N1CCC[C@H]1C(=O)N[C@@H](CO)C(N)=O [SEQ ID NO: 9, H2N-Y-Aib-E-G-T-F-I-S-D-I-S-I-Aib-K[{AEEA}2-gGlu-C18OH]-DRIHQEEFIEWILAQGPSSGAPPPS-NH2] (H-Y[Aib]EGTFISDLSI[Aib]K([AEEA-AEEA-γGlu-C18 diacid])DRIHQEEFIEWLLAQGPSSGAPPPS-NH2) | > 10000 | 6.9 | 8.2 | 125 |  |  |  |  |
| CC[C@H](C)[C@H](NC(=O)[C@H](CCCNC(=N)N)NC(=O)[C@H](CC(=O)O)NC(=O)[C@H](CCCCNC(=O)COCCOCCNC(=O)COCCOCCNC(=O)CC[C@H](NC(=O)CCCCCCCCCCCCCCCCCCC(=O)O)C(=O)O)NC(=O)C(C)(C)NC(=O)[C@@H](NC(=O)[C@H](CO)NC(=O)[C@H](CC(C)C)NC(=O)[C@H](CC(=O)O)NC(=O)[C@H](CO)NC(=O)[C@@H](NC(=O)[C@H](Cc1ccccc1)NC(=O)[C@@H](NC(=O)CNC(=O)[C@H](CCC(=O)O)NC(=O)C(C)(C)NC(=O)[C@@H](N)Cc1ccc(O)cc1)[C@@H](C)O)[C@@H](C)CC)[C@@H](C)CC)C(=O)N[C@@H](Cc1c[nH]cn1)C(=O)N[C@@H](CCC(N)=O)C(=O)NC(C)(C)C(=O)N[C@@H](CCC(=O)O)C(=O)N[C@@H](Cc1ccccc1)C(=O)N[C@H](C(=O)N[C@@H](CCC(=O)O)C(=O)N[C@@H](Cc1c[nH]c2ccccc12)C(=O)N[C@@H](CC(C)C)C(=O)N[C@@H](CC(C)C)C(=O)N[C@@H](C)C(=O)N[C@@H](CCC(N)=O)C(=O)NCC(=O)N1CCC[C@H]1C(=O)N[C@@H](CO)C(=O)N[C@@H](CO)C(=O)NCC(=O)N[C@@H](C)C(=O)N1CCC[C@H]1C(=O)N1CCC[C@H]1C(=O)N1CCC[C@H]1C(=O)N[C@@H](CO)C(N)=O)[C@@H](C)CC [SEQ ID NO: 7, H2N-Y-Aib-E-G-T-F-I-S-D-I-S-I-Aib-K[{AEEA}2-gGlu-C20OH]-D-R-I-H-Q-Aib-E-F-I-E-W-I-L-A-Q-G-P-S-S-G-A-P-P-P-S-NH2] (H-Y[Aib]EGTFISDLSI[Aib]K([AEEA-AEEA-γGlu-C20 diacid])DRIHQ[Aib]EFIEWLLAQGPSSGAPPPS-NH2) | > 10000 | 4.5 |  | 121 | 200 | >5.9 | > 6900 | 300 |
| CC[C@H](C)[C@H](NC(=O)[C@H](CCCNC(=N)N)NC(=O)[C@H](CC(=O)O)NC(=O)[C@H](CCCCNC(=O)COCCOCCNC(=O)COCCOCCNC(=O)CC[C@H](NC(=O)CCCCCCCCCCCCCCCCC(=O)O)C(=O)O)NC(=O)C(C)(C)NC(=O)[C@@H](NC(=O)[C@H](CO)NC(=O)[C@H](CC(C)C)NC(=O)[C@H](CC(=O)O)NC(=O)[C@H](CO)NC(=O)[C@@H](NC(=O)[C@H](Cc1ccccc1)NC(=O)[C@@H](NC(=O)CNC(=O)[C@H](CCC(=O)O)NC(=O)C(C)(C)NC(=O)[C@@H](N)Cc1ccc(O)cc1)[C@@H](C)O)[C@@H](C)CC)[C@@H](C)CC)C(=O)N[C@@H](Cc1c[nH]cn1)C(=O)N[C@@H](CCC(N)=O)C(=O)NC(C)(C)C(=O)N[C@@H](CCC(=O)O)C(=O)N[C@@H](Cc1ccccc1)C(=O)N[C@H](C(=O)N[C@@H](CCC(=O)O)C(=O)N[C@@H](Cc1c[nH]c2ccccc12)C(=O)N[C@@H](CC(C)C)C(=O)N[C@@H](CC(C)C)C(=O)N[C@@H](C)C(=O)N[C@@H](CCC(N)=O)C(=O)NCC(=O)N1CCC[C@H]1C(=O)N[C@@H](CO)C(=O)N[C@@H](CO)C(=O)NCC(=O)N[C@@H](C)C(=O)N1CCC[C@H]1C(=O)N1CCC[C@H]1C(=O)N1CCC[C@H]1C(=O)N[C@@H](CO)C(N)=O)[C@@H](C)CC [SEQ ID NO: 4, H2N-Y-Aib-E-G-T-F-I-S-D-I-S-I-Aib-K[{AEEA}2-gGlu-C18OH]-D-R-I-H-Q-Aib-E-F-I-E-W-I-L-A-Q-G-P-S-S-G-A-P-P-P-S-NH2] (H-Y[Aib]EGTFISDLSI[Aib]K([AEEA-AEEA-γGlu-C18 diacid])DRIHQ[Aib]EFIEWLLAQGPSSGAPPPS-NH2) | > 10000 |  |  | 116 | 200 | >8.4 | > 9500 | 500 |
